Results reported in patent publication US20230068020A1, “MACROLIDE COMPOUND AND ITS USE OF TREATMENT CHRONIC RESPIRATORY DISEASE” (priority 2020, published 2023).
Values after ≈ are worked out from the molar mass of the structure shown.

How the values were obtained:
THP-1 cell = experiment: Differentiation of monocyte to macrophage in THP-1 cell line; format: cell-based; conditions: in words
Method: The THP-1 cell line was purchased from ATCC (American Type Culture Collection, Manassas, Va.). Cells were maintained in growth medium (RPMI-1640) with supplemented with 10% heat inactivated bovine serum, 100× Glutamax medium and 0.05 mM β-Mercaptoethanol at 37° C. under 5% CO2. Compounds were dissolved in 0.1% DMSO. Erythromycin was used as a positive control.
For the assessment of the effect of compounds of the present invention on differentiation of monocyte to macrophage in THP-1 cell line, cells were collected and centrifuged at 900 rpm for 4 minutes. The cell density was adjusted to 2.5×10^5/mL. cell suspension of 400 μL was added to each well of 48-well plate following the plate layout. PMA 1 mg, a compound can induce monocyte differentiation, was dissolved in 10 mL DMSO to form 100 μg/mL solution and aliquote it into 1 mL per vial. 1 mL solution can be further aliquoted into 10 μL per vial and stored the aliquots at −20° C. Make 10-fold dilution of PMA with DMSO and then 500-fold dilution with complete medium. 50 μL solution were then added to each well of 48-well plate following the plate layout. Erythromycin and compounds of examples at stock concentration of 10 mM was serially diluted at 10-fold in DMSO. 50 μL solution was added to each well of 48-well plate following the plate layout. After 96 hrs incubation at 37° C., 5% CO2, the plate was washed with DPBS for three times to remove non-adherent cells for three times. Complete medium 180 μL and alarmar blue 20 μL was added to each well. The fluorescent intensity was read at excitation 530 nm and emission 590 nm using PerkinElmer Victor3 after 3 hours plate incubation.
The differentiation activity of compounds of Examples is compared to that of 100 μM erythromycin and the results are shown in FIG. 1 and Table 3.

in vivo = conditions: Sprague-Dawley, rat
Method: (§4) In another study, a single intravenous dose of two compounds was given to rats (N=3) at 30 mg/ml dosage following administration through the lateral tail vein in order to obtain the absolute oral bioavailability and clearance parameters. Compounds (10 mg/mL) was dissolved in 30% DMSO for IV injection and suspended in 0.5% CMC-Na for IG respectively.

[1] = male, Sprague-Dawley, rat, in vivo, po, 100 mg/kg
Method: as §4

[2] = tested on: Staphylococcus aureus ATCC 29213; experiment: Antibacterial activity, agar dilution MIC; format: cell-based; conditions: ATCC29213, 20-24 hrs incubation, read-out: minimum inhibitory concentration MIC
Method: (§1) The antibacterial activity of Erythromycin and compounds of examples were evaluated by the agar dilution method, following the guidelines of the CLSI. […] Briefly, bacteria were grown overnight in adapted media (MHIIA with 5% of sheep blood for Streptococcus pneumoniae and Haemophilus influenzae, and MHIIA for the other bacteria strains) at 35° C., 5% CO2.
(§2) Cultures were centrifuged at 3000×g for 15 min. Pellets were diluted with 5 mls cold PBS and the OD600nm was adjusted to 10^8 CFU.mL^−1 with a spectrometer. Bacteria were then added to 96-well test plates. Compounds were diluted in DMSO in a 2 fold steps from 20 mg/ml in DMSO in 96 well plated and transferred to the test plate. During the incubation, the plate was maintained at 35° C., 5% CO2.
(§3) The MICs for Erythromycin and compounds of examples were determined after 20-24 hrs incubation.

[3] = tested on: Haemophilus influenzae ATCC 49247; experiment: Antibacterial activity, agar dilution MIC; format: cell-based; conditions: ATCC49247, 20-24 hrs incubation, read-out: minimum inhibitory concentration MIC
Method: as §1, §2, §3

[4] = tested on: Acinetobacter baumanii ATCC 17978; experiment: Antibacterial activity, agar dilution MIC; format: cell-based; conditions: Acinetobacter baumannii, ATCC17978, 20-24 hrs incubation, read-out: minimum inhibitory concentration MIC
Method: as §1, §2, §3

[5] = tested on: Streptococcus pneumoniae ATCC 6301; experiment: Antibacterial activity, agar dilution MIC; format: cell-based; conditions: ATCC6301, 20-24 hrs incubation, read-out: minimum inhibitory concentration MIC
Method: as §1, §2, §3

[6] = tested on: Staphylococcus aureus NRS 384; experiment: Antibacterial activity, agar dilution MIC; format: cell-based; conditions: NRS384, 20-24 hrs incubation, read-out: minimum inhibitory concentration MIC
Method: as §1, §2, §3

[7] = tested on: Streptococcus pyogenes ATCC BAA-572; experiment: Antibacterial activity, agar dilution MIC; format: cell-based; conditions: ATCCBAA572, 20-24 hrs incubation, read-out: minimum inhibitory concentration MIC
Method: as §1, §2, §3

[8] = tested on: Acinetobacter baumannii ATCC-BAA-1605; experiment: Antibacterial activity, agar dilution MIC; format: cell-based; conditions: ATCCBAA1605, 20-24 hrs incubation, read-out: minimum inhibitory concentration MIC
Method: as §1, §2, §3

[9] = tested on: Streptococcus pneumoniae ATCC 49619; experiment: Antibacterial activity, agar dilution MIC; format: cell-based; conditions: ATCC49619, 20-24 hrs incubation, read-out: minimum inhibitory concentration MIC
Method: as §1, §2, §3

[10] = tested on: Moraxella catarrhalis ATCC 43617; experiment: Antibacterial activity, agar dilution MIC; format: cell-based; conditions: ATCC43617, 20-24 hrs incubation, read-out: minimum inhibitory concentration MIC
Method: as §1, §2, §3

[11] = tested on: smoke induced COPD mice model; experiment: Smoke induced COPD mice model; format: in vivo, C57BL/6 J mice
Method: The commercial non-filtered cigarettes containing 11 mg tar and 0.9 mg nicotine per cigarette were used in this study. Eight-week-old male C57BL/6 J mice (purchased from Shanghai Xipuer Yibikai animal Co) were divided into four groups as follows: Group 1 was the control group(NS6m), Group 2 was the animal model CS group(CS6m), Groups 3 was CS+Compound A 100 mpk group(LY100), Group 4 was CS+erythromycin group(EM100). Mice were placed in a Plexiglass chamber covered by a disposable filter. The animals received CS of 5 cigarettes/time, carried out twice per day and 5 days a week for 24 weeks. Mainstream CS was generated by an exposure system in which combustion of the cigarette was drawn into the mouse chambers via a peristaltic pump. In group 3 and 4, mice were orally administrated with Compound A (100 mg/kg) twice per day from the 12th week to 24th week. One week after the last CS exposure, animals were sacrificed by intraperitoneal injection of 10% chloral hydrate for the plasma, bronchoalveolar lavage fluid (BALF) and lung tissues collection.
The lung tissues were collected and inflated with 4% paraformaldehyde at a pressure of 25 cmH2O, fixed for 24 h in formalin, embedded with paraffin, sectioned in the sagittal plane, and stained with hematoxylin and eosin (H & E). Alveolus enlargement was quantified by measurement of the mean chord length of alveoli with Analysis software Image J (see FIGS. 5 & 6).
For the bronchoalveolar lavage fluid collection, lungs were lavaged with 1 ml of saline, and the resulting BALF was centrifuged at 3000 g for 15 minutes. Cells were washed three times and then analyzed on a ThermoFisher Countess II cytometer.

clearance (in vivo; iv): 50.2 mL/min/kg
AUC(0-inf) (in vivo; male, po, 100 mg/kg): 7250 ng·h/mL
AUC(0-t) (in vivo; male, po, 100 mg/kg): 7240 ng·h/mL
Cmax (in vivo; male, po, 100 mg/kg): 2530 ng/mL
Tmax (in vivo; male, po, 100 mg/kg): 2 h
half-life (in vivo; male, po, 100 mg/kg): 0.93 h
F [1]: 21.8%
MIC [2]: 0.5 µg/mL (≈ 0.681 µM)
MIC [3]: 16 µg/mL (≈ 21.8 µM)
MIC [4]: 64 µg/mL (≈ 87.2 µM)
MIC [5]: < 0.125 µg/mL
MIC [6]: 64 µg/mL (≈ 87.2 µM)
MIC [7]: < 0.125 µg/mL
MIC [8]: 16 µg/mL (≈ 21.8 µM)
MIC [9]: < 0.125 µg/mL
MIC [10]: 2 µg/mL (≈ 2.73 µM)
Compound: CC[C@H]1OC(=O)[C@H](C)[C@@H](O[C@H]2C[C@@](C)(OC)[C@@H](O)[C@H](C)O2)[C@H](C)[C@@H](O[C@@H]2O[C@H](C)C[C@H](N(C)C)[C@H]2O)[C@](C)(O)C[C@@H](C)C(=O)[C@H](C)[C@@H](O)[C@]1(C)O [Erythromycin, reference compound]
effect on THP-1 cell differentiation (THP-1 cell): promotional effect on THP-1 cell differentiation in a dose dependent manner
inflammatory cell infiltration and enlargement of alveolus (lung histology) ([11]; 100 mg/kg orally twice per day, 12th to 24th week, vs CS group): significantly attenuated
total cell count and number of macrophages and neutrophils in BALF ([11]; 100 mg/kg orally twice per day, compared to the smoking group): significantly lower
airway resistance and total lung capacity ([11]; oral administration of 100 mg/kg, 24 weeks smoke exposure): reduced two parameters and partially recovered lung function
